Test results taken from patent US5780254A, “Method for detection of herbicides” (Sandoz Ltd, priority 1996, dated 1998).
Where two headings read alike, the source gives them in different places.

Key:
Arabidopsis seeds [1] = assay: Arabidopsis reversal assay with antidote compounds; format: in vivo; details: for Growth, % of Control: probe compound at 1.5× lethal concentration; for growth without the antidote (in words): probe compound alone, no antidote
Method: The solutions are filter sterilized prior to addition. FIG. 4 represents a typical set up in a reversion assay for discovering inhibitors of AMP biosynthesis.
The left side (columns 1-3) of the 24-well microtiter plate is designed for controls, and the right side (columns 4-6) are designated for one probe compound. […] Rows B,C and D are supplemented with three doses of an antidote for the control and probe compound. […] The three doses are 50,100 and 150 μl respectively.
Forty ml of Arabidopsis growth media as described in Example 1 is sterilized and allowed to cool to about 45° C. A probe compound (at 1.5× lethal concentration) is added to columns 4 through 6 (right half of the plate). Media is distributed at 1.0 ml per well to all wells. Sterile seeds are added to each well as described above. As in Example 1, the plate is incubated and growth is scored.

[2] = target: T1, adenylosuccinate synthetase (ADSS) isolated from maize (Zea mays, UniProt O24578); assay: ADSS enzyme assay (HPLC and spectrophotometric), maize ADSS; format: biochemical; details: for product formation by ADSS: compound at 100 μM, maize ADSS (not shown); for time course of ADSS inhibition: spectrophotometric assay (FIG. 7, FIG. 8)
T1 construct: ADSS is obtained from 4-5 day old, etiolated seedlings of Zea mays; from tissue; host or cells: 4-5 day old etiolated maize seedlings
T1 sequence (O24578 45-484): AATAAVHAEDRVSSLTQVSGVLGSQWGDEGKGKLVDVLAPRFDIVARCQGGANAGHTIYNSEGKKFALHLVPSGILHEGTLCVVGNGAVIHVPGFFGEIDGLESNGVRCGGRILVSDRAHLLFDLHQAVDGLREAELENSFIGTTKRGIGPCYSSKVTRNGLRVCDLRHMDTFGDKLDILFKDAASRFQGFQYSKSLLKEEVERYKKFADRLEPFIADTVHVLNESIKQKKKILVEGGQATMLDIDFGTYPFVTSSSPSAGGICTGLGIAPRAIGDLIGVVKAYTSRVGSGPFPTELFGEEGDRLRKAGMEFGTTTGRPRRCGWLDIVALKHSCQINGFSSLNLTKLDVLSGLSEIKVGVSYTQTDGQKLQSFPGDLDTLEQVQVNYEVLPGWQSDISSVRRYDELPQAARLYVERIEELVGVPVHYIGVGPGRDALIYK
Method: (§1) ADSS is obtained from 4-5 day old, etiolated seedlings of Zea mays. Seedlings are homogenized in a Waring blender with an equal volume (grams of tissue=mls of buffer) of extraction buffer containing 50 mM EPPS, pH 7.5, 5 mM MgCl2, 0.1 mM EDTA, 5 mM sodium bisulfite, 5 mM DTT, 0.1 mM phenylmethanesulfonyl fluoride and 10% glycerol. The extract is expressed through Miracloth (Calbiochem, La Jolla, Calif.) sandwiched between layers of cheesecloth. To precipitate phenolics and nucleic acids, 0.2 to 0.4% w/v protamine sulfate is added to the extract. The extract is stirred for 30 minutes, and then centrifuged at 45,000×G for 60 minutes. The resulting supernatant is fractionated with ammonium sulfate. Proteins are retained which precipitate at concentrations of ammonium sulfate greater than 45% saturation, but less than 55% saturation. Similar methods are used to isolate ADSS from wheat germ, E. coli and rat liver. ADSS activity is further purified by subjecting the preparation to DEAE cellulose chromatography. The column is equilibrated with chromatography buffer consisting of 50 mM EPPS, pH 7.5, 10% glycerol, 0.1 mM EDTA, 5 mM MgCl2 and 1 mM DTT. After loading the enzyme preparation, the column is washed with two bed volumes of the chromatography buffer, then eluted with a linear, 10-bed-volume gradient of 0 to 0.4M KCl dissolved in the same buffer. The peak of ADSS activity elutes at a KCl concentration of about 150 mM. Fractions containing activity are pooled and the proteins concentrated by ultrafiltration. At this stage, the enzyme is suitable for high capacity screening tests that are designed to discover inhibitory compounds. Alternatively, hydrophobic interaction chromatography can be used instead of DEAE-cellulose. This material is optionally further purified by passage through a column of Sephadex G-75 equilibrated with the chromatography buffer described above. The peak of ADSS activity elutes at a retention volume corresponding to a molecular weight of approximately 50,000 Da.
ADSS is assayed by anion exchange HPLC and by a continuous spectrophotometric assay. For the former, enzyme is diluted appropriately with 50 mM EPPS, pH 8.3, 10% ethylene glycol, 10 mM potassium phosphate and 1 mM MgCl2 to a volume of 92 μL. […] Reactions are stopped by adding 1 μL of 4N HCl. 95 μL of the reaction mixture is injected to a Hamilton PRP-X100 column equilibrated with 3% acetonitrile. Reactants and products are eluted with a convex gradient (Curve=-2) to 6% 1M potassium phosphate, pH 7, and 12% 2M KCl delivered during a span of 30 min by a Perkin-Elmer 410 BIO pump. The column eluate is monitored at 270 nm using a Perkin-Elmer LC 480 diode array detector. Integrated peaks are quantified from standard curves. Identity of the products of the ADSS reaction, GDP and adenylosuccinate, are determined by comparing their retention times and spectra with those of authentic standards, purchased from Sigma Chemical Co.
For the spectrophotometric assay, reaction mixtures are the same as above, except that the volume is doubled. […] The optical density increases as AS is formed. […] This method of quantification was validated using the HPLC method.

ADSS from wheat germ = target: T2, ADSS from wheat germ (Triticum aestivum, UniProt O24396); assay: ADSS enzyme assay, wheat germ ADSS; format: biochemical; details: for product formation by ADSS: compound at 100 μM, wheat germ ADSS (not shown)
T2 construct: from tissue
T2 sequence (O24396 whole entry): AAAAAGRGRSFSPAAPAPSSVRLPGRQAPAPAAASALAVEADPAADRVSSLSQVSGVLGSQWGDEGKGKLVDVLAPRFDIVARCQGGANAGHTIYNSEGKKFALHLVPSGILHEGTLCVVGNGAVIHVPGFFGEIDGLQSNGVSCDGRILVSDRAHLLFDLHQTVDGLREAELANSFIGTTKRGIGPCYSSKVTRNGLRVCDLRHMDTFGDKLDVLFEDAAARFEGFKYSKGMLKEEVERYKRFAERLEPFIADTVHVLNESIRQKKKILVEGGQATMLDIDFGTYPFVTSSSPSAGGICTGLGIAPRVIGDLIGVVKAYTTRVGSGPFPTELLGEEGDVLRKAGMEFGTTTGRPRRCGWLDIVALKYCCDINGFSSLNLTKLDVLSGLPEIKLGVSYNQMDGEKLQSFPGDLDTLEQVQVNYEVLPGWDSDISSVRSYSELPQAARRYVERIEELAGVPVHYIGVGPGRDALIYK
Method: as §1, with “Fractions containing activity are pooled and the proteins concentrated by ultrafiltration. At this stage, the enzyme is suitable for high capacity screening tests that are designed to discover inhibitory compounds. Alternatively, hydrophobic interaction chromatography can be used instead of DEAE-cellulose. This material is optionally further purified by passage through a column of Sephadex G-75 equilibrated with the chromatography buffer described above. The peak of ADSS activity elutes at a retention volume corresponding to a molecular weight of approximately 50,000 Da.” left out
(§2) ADSS is assayed by anion exchange HPLC and by a continuous spectrophotometric assay. […] The column eluate is monitored at 270 nm using a Perkin-Elmer LC 480 diode array detector. Integrated peaks are quantified from standard curves. Identity of the products of the ADSS reaction, GDP and adenylosuccinate, are determined by comparing their retention times and spectra with those of authentic standards, purchased from Sigma Chemical Co.
(§3) For the spectrophotometric assay, reaction mixtures are the same as above, except that the volume is doubled. […] This method of quantification was validated using the HPLC method.

ADSS from E. coli = target: T3, ADSS from E. coli (Escherichia coli, UniProt P0A7D4); assay: ADSS enzyme assay, E. coli ADSS; format: biochemical; details: E. coli ADSS (FIG. 6); for product formation by ADSS: compound at 100 μM
T3 construct: endogenous in cells; host or cells: E. coli
T3 sequence (P0A7D4 2-432): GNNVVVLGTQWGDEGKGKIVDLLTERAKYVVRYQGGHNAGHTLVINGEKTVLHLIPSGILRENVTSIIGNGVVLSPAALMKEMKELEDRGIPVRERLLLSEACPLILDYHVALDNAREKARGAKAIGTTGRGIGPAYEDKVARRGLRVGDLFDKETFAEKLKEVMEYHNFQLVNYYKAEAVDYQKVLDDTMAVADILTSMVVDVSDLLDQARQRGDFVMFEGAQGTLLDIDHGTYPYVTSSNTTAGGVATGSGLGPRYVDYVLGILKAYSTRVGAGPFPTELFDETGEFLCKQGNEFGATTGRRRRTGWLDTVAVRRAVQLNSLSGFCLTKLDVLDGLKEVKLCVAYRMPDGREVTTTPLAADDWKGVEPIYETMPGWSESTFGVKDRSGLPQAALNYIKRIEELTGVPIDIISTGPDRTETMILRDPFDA
Method: as §1
as §2, with “assay. For the former, enzyme is diluted appropriately with 50 mM EPPS, pH 8.3, 10% ethylene glycol, 10 mM potassium phosphate and 1 mM MgCl2 to a volume of 92 μL.” for “assay.”
as §3

ADSS from rat liver = target: T4, ADSS from rat liver (Rattus norvegicus, UniProt D4AEP0); assay: ADSS enzyme assay, rat liver ADSS; format: biochemical; details: rat liver ADSS (FIG. 6); for product formation by ADSS: compound at 100 μM
T4 construct: from tissue; host or cells: rat liver
T4 sequence (D4AEP0 1-456): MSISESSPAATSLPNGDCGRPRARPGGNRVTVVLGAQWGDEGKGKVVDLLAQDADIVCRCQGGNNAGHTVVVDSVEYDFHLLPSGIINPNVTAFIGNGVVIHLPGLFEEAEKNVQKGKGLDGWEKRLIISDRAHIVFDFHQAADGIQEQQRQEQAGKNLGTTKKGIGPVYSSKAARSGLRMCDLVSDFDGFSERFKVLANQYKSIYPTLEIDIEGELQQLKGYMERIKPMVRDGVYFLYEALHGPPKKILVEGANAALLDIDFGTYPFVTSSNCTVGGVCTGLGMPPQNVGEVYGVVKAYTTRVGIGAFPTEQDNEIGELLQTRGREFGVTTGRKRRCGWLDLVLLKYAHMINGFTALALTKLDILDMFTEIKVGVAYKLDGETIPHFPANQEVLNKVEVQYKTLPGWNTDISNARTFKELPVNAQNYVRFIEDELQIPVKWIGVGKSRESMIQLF
Method: as §1
as §2, with “assay. For the former, enzyme is diluted appropriately with 50 mM EPPS, pH 8.3, 10% ethylene glycol, 10 mM potassium phosphate and 1 mM MgCl2 to a volume of 92 μL.” for “assay.”
as §3

[3] = test system: adenylosuccinate lyase (ASL); assay: Assay of adenylosuccinate lyase (ASL); format: biochemical, Zea mays; details: 1 mM concentration (data not shown)
Method: ASL is obtained from three day old, etiolated seedlings of Zea mays (maize). Seedlings are homogenized in a Waring blender with an equal volume (grams of tissue=mls of buffer) of 20 mM potassium phosphate buffer (KP buffer) containing 1 mM DTT. The slurry is then filtered through a cheese cloth and the filtrate subjected to 100,000×g centrifugation for 60 minutes. The clear supernatant is used for assaying ASL activity.
A typical reaction mixture in 1 mL contains 100-300 μL of ASL and 0.15 mM adenylosuccinate (30 μL of a 5 mM solution in KP buffer), the rest being KP buffer. Disappearance of absorbance at 280 nm is followed as a function of time to determine the rate of ASL activity. Inhibitors when needed are included to a final concentration of 1 mM in the assay mixture to observe the effect on the ASL activity. Compounds hydantocidin, N-acetylhydantocidin, NAP-H and hadacidin had no effect on the rate of ASL activity at 1 mM concentration (data not shown).

Arabidopsis seeds [4] = assay: Arabidopsis bioassay, determination of the lethal concentration (LC 90); details: read-out: lethal concentration (LC 90)
[5] = target: T1, adenylosuccinate synthetase (ADSS) isolated from maize; details: known from the literature; cited from earlier work
glutamine synthetase = details: background statement; cited from earlier work
[6] = background statement; cited from earlier work
[7] = antidote Adenosine + Guanosine 0.5-5.0 mM
[8] = antidote Cytidine + Uridine 0.5-5.0 mM
[9] = antidote Hypoxanthine 0.5-5.0 mM
[10] = concentration causing 90% or greater growth inhibition vs control, 7 days, about 28° C.

Row | Compound | Growth, % of Control (Arabidopsis seeds [1]; No antidote, 0 mM) [%] | Growth, % of Control (Arabidopsis seeds [1]; antidote ADP 0.5-5.0 mM) [%] | Growth, % of Control (Arabidopsis seeds [1]; antidote AMP 0.5-5.0 mM) [%] | Growth, % of Control (Arabidopsis seeds [1]; antidote ATP 0.5-5.0 mM) [%] | Growth, % of Control (Arabidopsis seeds [1]; antidote Adenine 0.5-5.0 mM) [%] | Growth, % of Control (Arabidopsis seeds [1]; antidote Adenosine 0.5-5.0 mM) | Growth, % of Control (Arabidopsis seeds [1]; [7]) [%] | Growth, % of Control (Arabidopsis seeds [1]; [8]) [%] | Growth, % of Control (Arabidopsis seeds [1]; antidote Guanine 0.5-5.0 mM) [%] | Growth, % of Control (Arabidopsis seeds [1]; antidote Guanosine 0.5-5.0 mM) [%] | Growth, % of Control (Arabidopsis seeds [1]; [9]) [%] | Growth, % of Control (Arabidopsis seeds [1]; antidote IMP 0.5-5.0 mM) [%] | growth without the antidote (in words) (Arabidopsis seeds [1]) | product formation by ADSS [2] | time course of ADSS inhibition [2] | product formation by ADSS (ADSS from wheat germ) | product formation by ADSS (ADSS from E. coli) | product formation by ADSS (ADSS from rat liver) | effect on the rate of ASL activity [3] | IC90 (Arabidopsis seeds [4]; [10]) [µM] | further results
1 | 5'-Phospho-N-acetyl-hydantocidin [NAP-H] | 0 | 100 | 100 | 40 | 65 | 80-100% | 80 | 0 | 0 | 0 | 0 | 5 | Growth is not observed | Product is not formed | Inhibition is initially weak, but becomes greater | Product is not formed | Product is not formed | Product is not formed | no effect | ~8 | inhibition of ADSS (in words) ([2]; 5 μM, spectrophotometric assay): is confirmed; reversibility of ADSS inhibition ([2]; enzyme incubated with 4 μM for 10 min, then Sephadex G-25): inhibition is reversible; inhibition of ADSS (in words) (ADSS from wheat germ; 10 μM, crude (desalted) extract from wheat germ, HPLC assay (FIG. 5)): Inhibition of ADSS
2 | O=CN(O)CC(=O)O [hadacidin] | 0 | 100 | 100 | 40 | 55 | 80-100% | 80 | 0 | 0 | 0 | 0 | 5 | Growth is not observed | Product is not formed | not time dependent | Product is not formed | Product is not formed | Product is not formed | no effect | – | IC50 ([2]; "under these conditions", ADSS source not given): 3 µM; mode of ADSS inhibition [5]: competitively with aspartate
3 | O=C1NC(=O)C2(N1)O[C@H](CO)[C@@H](O)[C@H]2O (single isomer, unassigned) [hydantocidin, Hydantocidin] | 0 | 100 | 100 | 40 | 60 | 80-100% | 80 | 0 | 0 | 0 | 0 | 5 | Growth is not observed | – | – | – | – | – | no effect | – | reversal of growth inhibition (in words) (Arabidopsis seeds [1]; antidote IMP, doses 50, 100 and 150 μl): did not reverse growth inhibition; reversal of growth inhibition (in words) (Arabidopsis seeds [1]; antidotes adenosine and AMP, rows B and C, wells 4 through 6): Complete growth is observed; reversal of inhibition at the lethal concentration (in words) (Arabidopsis seeds [1]; in the presence of AMP, ADP or adenine): completely reversed; inhibition of ADSS (in words) (ADSS from E. coli): neither the E. coli nor the rat liver ADSS are inhibited; inhibition of ADSS (in words) (ADSS from rat liver): neither the E. coli nor the rat liver ADSS are inhibited; inhibition of glutamine synthetase (in words) (glutamine synthetase): not inhibited; reversal of growth inhibition by aromatic amino acids (in words) [6]: not reversed; IC90 (Arabidopsis seeds [4]; Arabidopsis thaliana, 168 h): ~2 µM
4 | NC(=O)c1ncn([C@@H]2O[C@H](CO)[C@@H](O)[C@H]2O)n1 [TCR, 1,2,4-triazole-3-carboxamide-1-ribose] | – | – | – | – | – | – | – | – | – | – | – | – | Growth is not observed | – | – | – | – | – | – | – | –
5 | N-acetyl hydantocidin | 0 | 100 | 100 | 40 | 60 | 80-100% | 80 | 0 | 0 | 0 | 0 | 5 | Growth is not observed | – | – | – | – | – | no effect | ~12 | inhibition of ADSS (in words) (ADSS from E. coli): neither the E. coli nor the rat liver ADSS are inhibited; inhibition of ADSS (in words) (ADSS from rat liver): neither the E. coli nor the rat liver ADSS are inhibited
6 | COc1c(C)c2c(c(O)c1C/C=C(\C)CCC(=O)O)C(=O)OC2 [MPA, Mycophenolic Acid] | 0 | – | 5 | – | 0 | 5% | – | – | 40 | 80 | – | 5 | Growth is not observed | – | – | – | – | – | – | – | Growth, % of Control (Arabidopsis seeds [1]; antidote GMP 0.5-5.0 mM): 90%
